Measurements from patent publication US6551774B1, “Diagnostic methods for conditions associated with elevated cellular levels of telomerase activity” (Board of Regents, The University of Texas System, priority 1992, dated 2003).

Legend:
Tetrahymena cells = test: Telomere length in vegetatively grown Tetrahymena by Southern blot; assay type: cell-based, Tetrahymena thermophila
Method: For analysis of macronuclear DNA from cultures containing the nucleoside analog AZT (Sigma), or controls lacking analog, at various timepoints during vegetative divisions, cells from stationary stock cultures were inoculated into 25 ml thymine-deficient Iso-sensitest broth (‘Isobroth’, Oxoid USA) in 250 ml flasks. Cultures were incubated at 30° C. with shaking (100 rpm) for 48 hours. Cells were counted and plated at 1000 cells/1.5 ml in 24-well plates (Falcon) and grown at 30° C., without shaking, for 48 hours. 5 μl of these log phase cells were used to inoculate 1 ml cultures (Isobroth) containing varied concentrations of nucleoside analog. Thereafter, every 2-4 days cells were transferred, either 5 μl per well, or 1-3 μl using a multi-pronged replicator into fresh 1 ml broth containing AZT. Remaining cells were pelleted and stored at −80° C. until processed for DNA analysis.
For analysis of macronuclear DNA from vegetative cultures containing the nucleoside analogs Ara-G (Calbiochem), ddG (Calbiochem), or ddI (Calbiochem), or controls lacking analog, stock cultures were grown overnight in 2% PPYS as described. Cells were counted and plated at 100 cells/2 ml in 2% PPYS containing varied amounts of analog, 1% DMSO (Fisher) (as a control for ddG and Ara-G), or 2% PPYS alone. Cells were replica plated into fresh medium every 2-6 days, and remaining cells were pelleted and stored at −80° C. until processed for DNA analysis.
For analysis of macronuclear DNA from vegetative cultures containing d4T (Sigma) or control lacking the analog, stock cultures (SB210 VI) were grown overnight in Isobroth as described. Cells were then counted and duplicate cultures inoculated at 500 cells/5 ml Isobroth in 50 ml conical tubes, and grown at 30° C., shaking 80 rpm. 500-2000 cells were transfered to fresh broth every 2-4 days, and the remainder pelleted and stored at −80° C. until processed for DNA analysis.
Restriction digests, agarose gel electrophoresis, transfer of DNA to Nytran filters (Schleicher and Schuell), and hybridization with ^32P-nick-trapplated or random-primed probes were carried out using standard procedures (Maniatis et.al. 1989). Telomere length was analyzed as described previously for Tetrahymena [Larson 50 Cell, 477, 1987].
Telomere lengths in cells grown in the presence of the different analogs were monitored by Southern blot analysis of DNA samples extracted at a series of time points during the subculturings. The telomeres of cells grown vegetatively in 1 and 5 mM AZT in 2% PPYS medium were reproducibly shortened by up to an average of 170 base pairs compared with the control cultures grown in 2% PPYS in the absence of the drug (FIG. 21A and B). This shortening of telomeres occured in a concentration-dependent manner (FIG. 21B), with at least 50% of the maximal shortening effect occurring by 10 μM AZT, the lowest concentration tested.

[1] = test system: lymphoma cell line JY 616; test: Growth of cultured JY lymphoma cells with potential telomerase inhibitors; assay type: cell-based, human; conditions: 50 μM; normal rate until week 3
Method: (§1) The effect of the agents on telomerase activity in intact cells was then studied utilizing the lymphoma cell line JY 616 which were maintained in RPMI 1640 with […] Hepes, 10% FCS, and penicillin/streptomycin (Gibco). The cells were cultured in 6-well plates (Falcon) with 5.0 ML of medium per well in duplicate. Cells were passaged every 7-10 days which corresponded to 5-7 mean population doublings (MPD), and seeded at 3×10^4 cells per well into fresh medium containing analog or control. Cell viability was monitored prior to harvest utilizing trypan blue stain (Gibco) during counting with a hemocytometer. The average ratio of stained: unstained cells (dead:alive) was […]. The intactness of the DNA was measured on a parallel gel by observing its mobility in a gel prior to digestion by a restriction enzyme.

[2] = test system: lymphoma cell line JY 616; test: Telomere length of JY lymphoma cells by Southern blot; assay type: cell-based, human; conditions: AZT treated cells, week 3
Method: The first lane is DNA from the cells at the start of the experiment, the second is the RPMI control, and the third is cells treated with AZT for the times indicated.
Cells were treated over a 10 week period with either 10 μM ddG in 0.01% DMSO or medium with 0.01% DMSO only.
as §1

For `Cc1cn([C@H]2C[C@H](N=[N+]=[N-])[C@@H](CO)O2)c(=O)[nH]c1=O` [AZT], the “fraction of the maximal telomere shortening effect” value (Tetrahymena cells; 10 μM, the lowest concentration tested) was “at least 50%”, the “shortening of telomeres compared with control cultures” value (Tetrahymena cells; 1 and 5 mM in 2% PPYS medium) was no more than 170 base pairs and the cell growth [1] was “ceased proliferating”. The “mean telomere length compared to the control medium” value [2] was “marked decrease in mean telomere length”.
